Reference: patent US7179814B2, “Agents for controlling plant pests” (priority 1998, dated 2007)

What was measured:
Spodoptera frugiperda = assay: Critical concentration test/soil insects, Spodoptera frugiperda; format: in vivo; conditions: 120 h, 20.00 ppm in soil, 5 days after infestation, read-out: Kill in %
Protocol: (§1) To produce a suitable preparation of active compound, 1 part by weight of the active compound or the active compound mixture is mixed with the stated amounts of solvent and emulsifier, and the concentrate is diluted with water to the desired concentration.
(§2) The active compound preparation is mixed intimately with soil. Here, the concentration of the active compound in the preparation is almost irrelevant; only the amount by weight of active compound or active compound mixture per volume unit of soil, which is stated in ppm (mg/l), matters.
Soil is filled into 0.5 l pots and these are allowed to stand at 20° C. Immediately after preparation, 3 pre-germinated maize corns are placed into each pot. After the maize corns have emerged, boring sleeves are placed onto the pots. 9 days after preparation, the maize is populated with the test insects. After a further 5 days, the kill in % is determined. 100% means that all test insects have been killed; 0% means that the number of insects which are still alive is the same as for the untreated control.

[1] = system: Diabrotica balteata larvae in soil; assay: Critical concentration test/soil insects, Diabrotica balteata; format: in vivo; conditions: Diabrotica balteata, 168 h; 20.0 ppm in soil, 7 days after infestation; read-out: Kill in %
Protocol: as §1, §2
Soil is filled into 0.5 l pots and these are allowed to stand at 20° C. Immediately after preparation, 5 pre-germinated maize corns are placed into each pot. After 2 days, the test insects are placed into the treated soil. After a further 7 days, the kill in % is determined. 100% means that all test insects have been killed; 0% means that none of the test insects have been killed.

[2] = system: caterpillars of the diamondback moth (Plutella xylostella); assay: Plutella test (cabbage leaf dip); format: in vivo
Protocol: (§3) To produce a suitable preparation of active compound, 1 part by weight of an active compound or an active compound combination is mixed with the stated amounts of solvent and emulsifier, and the concentrate is diluted with water to the desired concentration.
Cabbage leaves (Brassica oleracea) are treated by being dipped into the preparation of active compound of the desired concentration and are populated with caterpillars of the diamondback moth (Plutella xylostella) while the leaves are still moist.
After the desired period of time, the kill in % is determined 100% means that all caterpillars have been killed; 0% means that none of the caterpillars have been killed.

[3] = system: Phaedon cochleariae larvae; assay: Critical concentration test/root-systemic action, Phaedon cochleariae; format: in vivo; conditions: 72 h, 20.00 ppm in soil, root-systemic, 3 days after infestation, read-out: Kill in %
Protocol: as §1, §2
Soil is filled into 250 ml pots and these are planted with cabbage (Brassica oleracea). The active compound or the active compound combination can thus be taken up by the plant roots from the soil and transported into the leaves.
After 7 days, the leaves are populated with the abovementioned test animals. After a further 3 days, the kill in % is determined. 100% means that all test insects have been killed; 0% means that the number of insects which are still alive is the same as in the untreated control.

green peach aphid = assay: Myzus test (cabbage leaf dip); format: in vivo, Myzus (green peach aphid); conditions: concentration 0.1 %
Protocol: as §3
Cabbage leaves (Brassica oleracea) which are heavily infested by the green peach aphid are treated by being dipped into the active compound preparation of the desired concentration.
After the desired period of time, the kill in % is determined. 100% means that all aphids have been killed; 0% means that none of the aphids have been killed.

Botrytis cinerea = assay: Botrytis test (bean)/protective; format: in vivo; conditions: single active compound
Protocol: as §3, with “of” for “of an”, “or” for “or an”, “desired concentration, or a commercial formulation of active compound or active compound combination is diluted with water to the desired” for “desired”
To test for protective activity, young plants are sprayed with the active compound preparation at the stated application rate. After the spray coating has dried on, 2 small pieces of agar colonized by Botrytis cinerea are placed onto each leaf. The inoculated plants are placed in a dark chamber at approximately 20° C. and 100% relative atmospheric humidity.
2 days after the inoculation, the size of the disease spots on the leaves is evaluated. 0% means an efficacy which corresponds to that of the control, whereas an efficacy of 100% means that no infection is observed.

Fusarium culmorum = Fusarium culmorum test (wheat)/seed treatment; format: in vivo; conditions: 75 g/ha, dry seed dressing, approximately 3 weeks after sowing
Protocol: The active compounds are applied as a dry dressing. They are prepared by extending the active compound in question with ground minerals to give a finely pulverulent mixture which ensures even distribution on the surface of the seeds.
For the dressing, the infected seeds are shaken with the dressing in a closed glass bottle for 3 minutes.
2×100 seeds of the wheat are sown at a depth of 1 cm into standard soil, and the wheat is cultivated in a greenhouse at a temperature of approximately 18° C. and at a relative atmospheric humidity of approximately 95% in seed containers receiving 15 hours of light per day.
The evaluation of the plants for symptoms is carried out approximately 3 weeks after sowding. 0% means an efficacy which corresponds to that of the control, whereas an efficacy of 100% means that no infection is observed.

[4] = system: green rice leaf hopper (Nephotettix cincticeps); assay: Nephotettix test (rice seedling dip); format: in vivo
Protocol: as §3
Rice seedlings (Oryza sativa) are treated by being dipped into the active compound preparation of the desired concentration and are populated with the green rice leaf hopper (Nephotettix cincticeps) while the leaves are still moist.
After the desired period of time, the kill in % is determined. 100% means that all the leaf hoppers have been killed; 0% means that none of the leaf hoppers have been killed.

[5] = system: larvae of the mustard beetle (Phaedon cochleariae); assay: Phaedon larvae test (cabbage leaf dip); format: in vivo; conditions: concentration 0.004 %
Protocol: as §3
Cabbage leaves (Brassica oleracea) are treated by being dipped into the preparation of active compound of the desired concentration and are populated with larvae of the mustard beetle (Phaedon cochleariae) while the leaves are still moist.
After the desired period of time, the kill in % is determined. 100% means that all beetle larvae have been killed; 0% means that none of the beetle larvae have been killed.

Sphaerotheca fuliginea = assay: Sphaerotheca test (cucumber)/protective; format: in vivo; conditions: 10 g/ha, single active compound, 10 days after inoculation
Protocol: as §3, with “of” for “of an”, “or” for “or an”, “desired concentration, or a commercial formulation of active compound or active compound combination is diluted with water to the desired” for “desired”
To test for protective activity, young plants are sprayed with the commercial active compound preparation at the stated application rate. After the spray coating has dried on, the plants are inoculated with an aqueous spore suspension of Sphaerotheca fuliginea. The plants are then placed in a greenhouse at approximately 23° C. and a relative atmospheric humidity of approximately 70%.
Evaluation is carried out 10 days after the inoculation. 0% means an efficacy which corresponds to that of the control, whereas an efficacy of 100% means that no infection is observed.

[6] = system: Heliothis virescens caterpillars; assay: Heliothis virescens test (soya bean shoot dip); format: in vivo; conditions: concentration 0.004 %
Protocol: as §3
Soya bean shoots (Glycine max) are treated by being dipped into the active compound preparation of the desired concentration and are populated with Heliothis virescens caterpillars while the leaves are still moist.
After the desired period of time, the kill in % is determined. 100% means that all caterpillars have been killed; 0% means that none of the caterpillars have been killed.

Pyrenophora teres = Pyrenophora teres test (barley)/protective; format: in vivo; conditions: 18.75 g/ha, single active compound
Protocol: as §3, with “of” for “of an”, “or” for “or an”, “desired concentration, or a commercial formulation of active compound or active compound combination is diluted with water to the desired” for “desired”
To test for protective activity, young plants are sprayed with the active compound preparation at the stated application rate. After the spray coating has dried on, the plants are sprayed with a conidia suspension of Pyrenophora teres. The plants remain in an incubation cabin at 20° C. and 100% relative atmospheric humidity for 48 hours.
The plants are then placed in a greenhouse at a temperature of approximately 20° C. and a relative atmospheric humidity of approximately 80%.
Evaluation is carried out 7 days after the inoculation. 0% means an efficacy which corresponds to that of the control, whereas an efficacy of 100% means that no infection is observed.

Phytophthora infestans = format: in vivo; conditions: 10 g/ha, single active compound

With `N#Cc1c[nH]cc1-c1cccc(Cl)c1Cl` [fenpiclonil] the pest or weed control at 20 ppm (Spodoptera frugiperda) was 0%, the pest or weed control at 20 ppm [1] was 0% and the Kill in % ([2]; concentration 0.1 %) was 0%. The pest or weed control at 20 ppm [3] was 0% and the Kill in % (green peach aphid) was 0%.
`N#Cc1c[nH]cc1-c1cccc2c1OC(F)(F)O2` [fludioxonil] showed an Efficacy in % (Botrytis cinerea; 10 g/ha, 2 days after inoculation) of 40%, an Efficacy in % (Fusarium culmorum) of 0% and a pest or weed control at 20 ppm [1] of 0%. The Kill in % ([4]; concentration 0.02 %) was 0%.
`CC(C1CC1)C(O)(Cn1cncn1)c1ccc(Cl)cc1` (stereo not shown) [cyproconazole] gave a pest or weed control at 20 ppm (Spodoptera frugiperda) of 0%, a Kill in % [5] of 10% and an Efficacy in % (Sphaerotheca fuliginea) of 70%. For the same compound, the Efficacy in % (Fusarium culmorum) was 1%, the pest or weed control at 20 ppm [1] was 0% and the Kill in % [6] was 0%. For the same compound, the Kill in % ([2]; concentration 0.004 %) was 0%.
In the case of `CO/C=C(/C(=O)OC)c1ccccc1Oc1cc(Oc2ccccc2C#N)ncn1` [azoxystrobin], the “Efficacy in % calculated/found” value (Pyrenophora teres) is reported as 0%, the pest or weed control at 20 ppm (Spodoptera frugiperda) is reported as 0% and the Efficacy in % (Botrytis cinerea; 40 g/ha) is reported as 42%. For the same compound, the Efficacy in % (Phytophthora infestans) was 74%, the pest or weed control at 20 ppm [1] was 0% and the pest or weed control at 20 ppm [3] was 0%.
Compound `O=C(Nc1ccccc1)N(Cc1ccc(Cl)cc1)C1CCCC1` [pencycuron] has a pest or weed control at 20 ppm [1] of 0%, a Kill in % ([2]; concentration 0.1 %) of 0% and a Kill in % ([4]; concentration 0.1 %) of 0%. The Kill in % (green peach aphid) was 0%.
For `Cc1ccc(C(C)NC(=O)C(NC(=O)OC(C)C)C(C)C)cc1` (racemic) [SZX722], the Efficacy in % (Phytophthora infestans) was 88%.
`CC(C)(C)C(O)C(Oc1ccc(Cl)cc1)n1cncn1` (stereo not shown) [triadimenol] was tested, and the “Efficacy in % calculated/found” value (Pyrenophora teres) was 40%, the pest or weed control at 20 ppm (Spodoptera frugiperda) was 0% and the pest or weed control at 20 ppm [1] was 0%. It also gave a pest or weed control at 20 ppm [3] of 0%.
